Converted amounts (≈) assume the structure as drawn.
How the values were obtained:
[1] = test system: 10 different Staphylococcus aureus (S. aureus) strains; assay: IM032 staphyloxanthin production inhibition, all tested strains; format: cell-based
Method: This study aimed to evaluate IM032 for its in vitro efficacy to inhibit the production of staphyloxanthin in different strains of S. aureus.
Compound IM032 was evaluated for its in vitro efficacy to inhibit staphyloxanthin production in 10 different Staphylococcus aureus (S. aureus) strains, SH1000, HG003, ATCC29213, ATCC700698, COL, JE2, LAC, USA300-3, Newman and ST239III.
The negative control was dimethyl sulfoxide (DMSO) which was used to prepare stock solutions and dilutions; positive control in this test was S. aureus strain FPR3757 treated with IM032.
The test item was dissolved at 44.9 mg/mL in DMSO at 37° C., aliquoted into several tubes, and stored at −20° C. until use. On the day of testing, a stock solution was serially diluted to testing concentrations with DMSO. […]
Each test item solution (6 μL) was combined with 0.6 mL of S. aureus culture in brain heart infusion broth (CFU per well=1×10^7). […] After centrifugation, 100 μL of supernatant was transferred to a 96-well cell culture plate and OD450 was measured. The relative pigment production at each tested concentration was calculated as follows: […]
The IC50 for each test was determined based on the calculated inhibition ratio from above with Prism 6.0 by employing a non-linear regression (four parameters) fitting method with assigned bottom and top at 0.05 and 0.95 respectively. […]

[2] = test system: MRSA USA 300 ATCC BAA-1717; assay: Mouse (LD0-20) bacteremia model; format: in vivo, BALB/c mice; conditions: IM032 0.3-30 mg/kg PO BID for 7 days; sacrificed at 168 h (Day 7)
Method: Efficacy of IM032 in a Mouse (LD0-20) Bacteremia Model Infected with Methicillin-Resistant Staphylococcus (MRSA USA300) (BAA-1717)
A bacterial strain, USA 300 MRSA BAA-1717, was used to infect BALB/c (female). Test animals were intravenously (IV) inoculated with MRSA ATCC BAA-1717 at a target density of 1×10^6 CFU/mouse. Test substance, IM032 at 0, 0.3, 1, 3, 10, and 30 mg/kg, was administered orally (PO) twice daily (BID) for a total of 7 dosing days.
The reference agents, vancomycin at 3 mg/kg was administered IV once (QD) at 1 h after infection for 7 consecutive days.
With reference to FIG. 9, the animals were IV inoculated with MRSA USA 300 ATCC BAA-1717 at 1.02×10^6 CFU/mouse. IM032 at 0.3, 1, 3, 10, and 30 mg/kg were orally (PO) administrated twice daily (BID) at 1 and 7 h after the infection on Day 1, and then twice daily at 6-hour intervals in the next 6 days for a total of 7 days of dosing. Vancomycin, at 3 mg/kg, was administered intravenously (IV) at 1 h after the infection on Day 1 and then once a day in the next 6 days for a total of 7 days of dosing. […] Statistical significance compared to the respective vehicle control was determined by unpaired student t-tests. […]
With reference to FIG. 10, bacterial density in lung and liver were determined. […] Statistical significance compared to the respective vehicle control was determined by unpaired student t-tests. […]

[3] = Solubility in commonly used solvents for oral administration; format: physicochemical

O=C(/C=C/c1ccccc1Br)Nc1ccc(S(=O)(=O)N2CCCCC2)cc1 [NP16-XL-016, 3-(6-bromophenyl)-N-[4-(1-piperidine-1-sulfonyl)phenyl]-acrylamide]
IC50 ([1]; Staphylococcus aureus, all 10 tested strains, read-out: IC50 of staphyloxanthin production inhibition, range over tested strains): 1.2 to 70 nM | bactericidal effect (reduction in optical density) ([1]; any concentration of IM032, up to 4,000 nM): A clear bactericidal effect as evidenced by a reduction in optical density was not observed | bacteria count across major organs [2]: statistically significant reduction in bacteria count across major organs | solubility ([3]; 1:1 Labrasol ALF/PEG300, organic solvent or mixture): 16.1 mg/mL (≈ 35.8 mM) | solubility ([3]; 1:1 Labrasol ALF/PEG400, organic solvent or mixture): > 15 mg/mL | solubility ([3]; Labrasol ALF, oil or lipid): 11.8 mg/mL (≈ 26.3 mM) | solubility ([3]; PEG300, organic solvent or mixture): > 20 mg/mL | solubility ([3]; PEG400, organic solvent or mixture): > 20 mg/mL

— patent US11040949B2, “Compounds affecting pigment production and methods for treatment of bacterial diseases” (Versitech Limited, priority 2017, dated 2021)
